Data reported in patent US20080261994A1, “CYCLOPROPANE COMPOUNDS AND PHARMACEUTICAL USE THEREOF” (Japan Tobacco Inc., priority 2003, published 2008).
Structures can show the parent of a compound that is named as a salt.

Key:
Assay type in all cases: biochemical
MMP-1 = target: T1, MMP-1 (Homo sapiens, UniProt P03956); assay: MMP-1 inhibitory action (Type I collagen Activity Measurement kit, FITC-labeled collagen type I); details: MMP-1 inhibitory action, FITC-labeled collagen type I, 37° C. for 3 hr; read-out: IC50 MMP1 (Experimental Example 2)
T1 sequence (P03956 100-469): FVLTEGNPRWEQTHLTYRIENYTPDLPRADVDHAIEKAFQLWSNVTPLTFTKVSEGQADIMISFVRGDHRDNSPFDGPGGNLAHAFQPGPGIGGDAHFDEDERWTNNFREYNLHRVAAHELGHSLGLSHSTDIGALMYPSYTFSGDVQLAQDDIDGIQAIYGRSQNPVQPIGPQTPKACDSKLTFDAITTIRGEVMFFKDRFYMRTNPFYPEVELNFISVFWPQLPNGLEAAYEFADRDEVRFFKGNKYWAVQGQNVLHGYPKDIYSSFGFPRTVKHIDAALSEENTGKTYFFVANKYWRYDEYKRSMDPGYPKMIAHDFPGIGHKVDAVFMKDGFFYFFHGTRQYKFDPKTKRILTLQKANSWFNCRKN

aggrecanase-1 = target: T2, aggrecanase-1 (Homo sapiens, UniProt O75173); assay: Aggrecanase-1 inhibitory action (Particle Assay, GAG release from aggrecan-containing polyacrylamide particles); details: aggrecanase-1 inhibitory action; read-out: IC50 AG1 (Experimental Example 1)
T2 sequence (O75173 213-837): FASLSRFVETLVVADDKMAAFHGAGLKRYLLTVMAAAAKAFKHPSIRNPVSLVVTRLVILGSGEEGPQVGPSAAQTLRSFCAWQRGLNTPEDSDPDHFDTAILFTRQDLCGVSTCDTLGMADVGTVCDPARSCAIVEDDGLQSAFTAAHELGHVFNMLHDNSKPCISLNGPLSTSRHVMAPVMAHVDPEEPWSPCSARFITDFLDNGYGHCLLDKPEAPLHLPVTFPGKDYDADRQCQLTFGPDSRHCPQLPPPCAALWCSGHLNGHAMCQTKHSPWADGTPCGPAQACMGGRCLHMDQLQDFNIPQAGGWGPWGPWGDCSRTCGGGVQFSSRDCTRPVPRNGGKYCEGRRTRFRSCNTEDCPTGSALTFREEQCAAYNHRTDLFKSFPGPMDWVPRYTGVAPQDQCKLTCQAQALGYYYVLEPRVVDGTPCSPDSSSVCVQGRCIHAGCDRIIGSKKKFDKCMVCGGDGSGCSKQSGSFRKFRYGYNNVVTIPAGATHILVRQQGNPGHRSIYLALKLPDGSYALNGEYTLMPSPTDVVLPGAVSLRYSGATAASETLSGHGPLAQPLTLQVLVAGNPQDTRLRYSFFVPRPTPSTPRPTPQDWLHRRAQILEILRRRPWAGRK
Summary of the method: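 Enzyme and compound incubated with aggrecan-containing polyacrylamide particles in Tris-HCl buffer at 37° C for 15 h. Released GAG in supernatant measured with 1,9-dimethylmethylene blue at 595 nm against chondroitin sulfate standard; % inhibition from enzyme-free and inhibitor-free wells, reported as TC50 (μM).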

Recombinant Human MMP-13 = target: T3, Recombinant Human MMP-13 (Homo sapiens, UniProt P45452); assay: MMP-13 inhibitory activity (MMP-13 specific fluorescent substrate with quencher); details: Recombinant Human MMP-13, fluorescent substrate, 25° C. for 1 h; read-out: IC50 MMP13 (Experimental Example 3)
T3 construct: purchased R&D systems 511-MM
Experimental: Inhibitory activity of tested compounds on MMP-13 was measured using MMP-13 specific fluorescent substrate with quencher.
The enzyme and substrate were diluted with Tris-HCl buffer, and test compounds were diluted with dimethyl sulfoxide (DMSO).
Test compounds and the enzyme (Recombinant Human MMP-13: R&D systems, 511-MM) were added into 96-well plate. The reaction was initiated by adding synthetic substrate (7-MCA-Pro-CHA-Gly-NVal-His-Ala-DPA: enzyme systems products, Met-06) into the plate. After incubation at 25° C. for 1 h, the reaction was terminated by addition of reaction terminating solution containing acetic acid. Fluorescence intensity of each well was measured (Ex: 325 nm, […] 405 nm) and the MMP-13 inhibitory activity of the compound in each well (%) was calculated based on the values of enzyme-free well and inhibitor-free well. The inhibitory activity of the compound was represented as IC50 (μM).

IC50 (MMP-1) [µM]	IC50 (aggrecanase-1) [µM]	IC50 (Recombinant Human MMP-13) [µM]	SMILES
≥ 1	< 0.1	< 0.1	O=C(O)C1(NS(=O)(=O)c2ccc(-c3ccc(Cl)cc3)s2)CC1c1cccc(NS(=O)(=O)C(F)(F)F)c1 (stereo not drawn) [Example 1-132]
≥ 1	< 0.1	< 0.1	CN(C)c1cccc(C2CC2(NS(=O)(=O)c2ccc(-c3ccc(Cl)cc3)s2)C(=O)O)c1 (stereo not drawn) [Example 1-133]
≥ 1	< 0.1	< 0.1	O=C(O)C1(NS(=O)(=O)c2ccc(-c3ccc(Cl)cc3)s2)CC1c1cccc(CO)c1 (stereo not drawn) [Example 1-134]
≥ 1	< 0.1	< 0.1	O=C(O)C1(NS(=O)(=O)c2ccc(-c3ccc(Cl)cc3)s2)CC1c1cccc(NS(=O)(=O)c2cccnc2)c1 (stereo not drawn) [Example 1-136]
≥ 1	< 0.1	< 1	O=C(O)C1(NS(=O)(=O)c2ccc(-c3ccc(Cl)cc3)s2)CC1c1ccccc1OCCO (stereo not drawn) [Example 1-138]
≥ 10	< 0.1	< 1	O=C(O)COc1ccccc1C1CC1(NS(=O)(=O)c1ccc(-c2ccc(Cl)cc2)s1)C(=O)O (stereo not drawn) [Example 1-139]
≥ 10	≥ 1	≥ 10	CC(C)(C)OC(=O)N1CC=C(c2ccc(S(=O)(=O)N[C@@]3(C(=O)O)C[C@@H]3c3ccccc3)s2)CC1 [Example 2, 4-[5-((1S,2R)-1-carboxy-2-phenyl-cyclopropanesulfamoyl)-thiophene-2-yl]-3,6-dihydro-2H-pyridin-1-carboxylic acid t-butyl ester]
≥ 10	≥ 10	≥ 10	O=C(O)[C@]1(NS(=O)(=O)c2ccc(C3=CCNCC3)s2)C[C@@H]1c1ccccc1 [Example 2-2, (1S,2R)-2-phenyl-1-[5-(1,2,3,6-tetrahydro-pyridin-4-yl)-thiophene-2-sulfonylamino]-cyclopropanecarboxylic acid hydrochloride]
≥ 10	≥ 1	≥ 1	COC(=O)N1CC=C(c2ccc(S(=O)(=O)N[C@@]3(C(=O)O)C[C@@H]3c3ccccc3)s2)CC1 [Example 2-3, 4-[5-((1S,2R)-1-carboxy-2-phenyl-cyclopropanesulfamoyl)-thiophene-2-yl]-3,6-dihydro-2H-pyridin-1-carboxylic acid methyl ester]
< 1	< 0.1	< 0.1	C#Cc1cnn(-c2ccc(S(=O)(=O)N[C@@]3(C(=O)O)[C@H](C)[C@@H]3c3ccccc3)s2)c1 [Example 2-4, (1S,2R,3R)-1-[5-(4-ethynyl-pyrazole-1-yl)-thiophene-2-sulfonylamino]-2-methyl-3-phenyl-cyclopropanecarboxylic acid]
≥ 1	< 1	< 0.1	C[C@@H]1[C@H](c2ccccc2)[C@]1(NS(=O)(=O)N1CCN(c2ccc(C(F)(F)F)cn2)CC1)C(=O)O [Example 2-5, (1S,2R,3R)-2-methyl-3-phenyl-1-[4-(5-trifluoromethyl-pyridin-2-yl)-piperazine-1-sulfonylamino]-cyclopropanecarboxylic acid]
≥ 1	< 0.1	< 1	C[C@]1(c2ccccc2)C[C@@]1(NS(=O)(=O)c1ccc(-c2cc(C(F)(F)F)on2)s1)C(=O)O [Example 2-6, (1S,2R)-2-methyl-2-phenyl-1-[5-(5-trifluoromethyl-isoxazol-3-yl)-thiophene-2-sulfonylamino]-cyclopropanecarboxylic acid]
< 1	< 0.1	< 0.1	C[C@@H]1[C@H](c2ccccc2)[C@]1(NS(=O)(=O)c1ccc(-c2cc(C(F)(F)F)on2)s1)C(=O)O [Example 2-7, (1S,2R,3R)-2-methyl-3-phenyl-1-[5-(5-trifluoromethyl-isoxazol-3-yl)-thiophene-2-sulfonylamino]-cyclopropanecarboxylic acid]
≥ 1	< 0.1	< 0.1	O=C(O)C1(NS(=O)(=O)c2ccc(-c3ccc(Cl)cc3)s2)C2CCCc3ccccc3C21 (stereo not drawn) [Example 2-8, (1R*,1aS*,8bS*)-1-[5-(4-chloro-phenyl)thiophene-2-sulfonylamino]-1,1a,2,3,4,8b-hexahydrobenzo[a]cyclopropane[c]cyclohepten-1-carboxylic acid]
< 0.1	< 0.1	< 0.1	C[C@@H]1[C@H](c2ccccc2)[C@]1(NS(=O)(=O)c1ccc(-c2cc(C(C)(F)F)on2)s1)C(=O)O [Example 2-9, (1S,2R,3R)-1-{5-[5-(1,1-difluoro-ethyl)-isoxazol-3-yl]-thiophene-2-sulfonylamino}-2-methyl-3-phenyl-cyclopropanecarboxylic acid]
≥ 1	≥ 1	≥ 1	CC1[C@H](c2ccccc2)[C@]1(NS(=O)(=O)N1CCN(C(=O)Nc2ccccc2)CC1)C(=O)O (stereo partly drawn) [Example 2-11, (1S,2R,3R)-2-methyl-3-phenyl-1-(4-phenylcarbamoyl-piperazine-1-sulfamoylamino)-cyclopropanecarboxylic acid]
< 1	< 0.1	< 0.1	C[C@]1(c2ccccc2)C[C@@]1(NS(=O)(=O)c1ccc(-c2ccc(Cl)c(N)c2)s1)C(=O)O [Example 2-12, (1S,2R)-1-[5-(3-amino-4-chloro-phenyl)-thiophene-2-sulfonylamino]-2-methyl-2-phenyl-cyclopropanecarboxylic acid]
≥ 10	≥ 10	≥ 10	Cn1nc(C(F)(F)F)cc1-c1ccc(S(=O)(=O)NC2(C(=O)O)CC2c2ccccc2)s1 (stereo not drawn) [Example 2-14]
≥ 10	≥ 10	≥ 1	O=C(O)C1(NS(=O)(=O)N2CC(Oc3ccc(Cl)cc3)C2)CC1c1ccccc1 (stereo not drawn) [Example 2-15]
≥ 10	≥ 10	< 1	Cn1nc(-c2ccc(S(=O)(=O)NC3(C(=O)O)CC3c3ccccc3)s2)cc1C(F)(F)F (stereo not drawn) [Example 2-16]
≥ 10	≥ 1	< 0.1	O=C(O)C1(NS(=O)(=O)c2ccc(-c3ccc(OC(F)(F)F)cc3)s2)CC1c1ccccc1 (stereo not drawn) [Example 2-17]
≥ 1	< 1	< 1	O=C(O)C1(NS(=O)(=O)c2ccc(-c3ccc(Cl)c(Cl)c3)s2)CC1c1ccccc1 (stereo not drawn) [Example 2-18]
≥ 10	< 1	< 1	O=C(O)C1(NS(=O)(=O)c2ccc(-c3ccc(C(F)(F)F)cc3)s2)CC1c1ccccc1 (stereo not drawn) [Example 2-19]
≥ 1	< 1	< 0.1	Cc1ccc(-c2ccc(S(=O)(=O)NC3(C(=O)O)CC3c3ccccc3)s2)cc1 (stereo not drawn) [Example 2-20]
≥ 1	< 1	< 1	O=C(O)C1(NS(=O)(=O)c2ccc(-c3ccc(F)cc3)s2)CC1c1ccccc1 (stereo not drawn) [Example 2-21]
≥ 10	< 0.1	< 0.1	O=C(O)C1(NS(=O)(=O)c2ccc(-c3ccc(Cl)cc3)s2)CC1c1ccccc1OCc1cccnc1 (stereo not drawn) [Example 2-22]
≥ 10	< 1	< 1	O=C(O)C1(NS(=O)(=O)c2ccc(-c3ccc(Cl)cc3)s2)CC1c1ccccc1OCc1ccccn1 (stereo not drawn) [Example 2-23]
≥ 10	< 1	< 1	O=C(O)C1(NS(=O)(=O)c2ccc(-c3ccc(Cl)cc3)s2)CC1c1ccccc1Oc1cccnc1 (stereo not drawn) [Example 2-24]
≥ 10	< 0.1	< 1	CC(C)(O)COc1ccccc1C1CC1(NS(=O)(=O)c1ccc(-c2ccc(Cl)cc2)s1)C(=O)O (stereo not drawn) [Example 2-25]
